Test results from patent publication US20100036088A1, “Selective poly-N-substituted glycine antibiotics” (priority 2008, published 2010).
pIC50: −log10 of the molar value. Read-outs that look alike come from different tables or passages of the source. Square brackets hold non-standard residues; d marks the D form. Peptide text beside a SMILES is read from it. Nrpe = C[C@@H](NCC(=O)O)c1ccccc1; Nspe = C[C@H](NCC(=O)O)c1ccccc1; NDecylGly = CCCCCCCCCCNCC(=O)O; NPentylGly = CCCCCNCC(=O)O; Nlys = NCCCCNCC(=O)O

Tests used:
human erythrocytes = test: Hemolysis assay; type: cell-based
Method in brief: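 Human erythrocytes from fresh heparinised blood, 20 vol % in PBS pH 7.4, mixed 1:1 with 2-fold serial peptoid dilutions; PBS as 0% and 0.2 vol % Triton X-100 as 100% hemolysis. Incubated 1 h at 37 °C, diluted, centrifuged 1200 g for 15 min; supernatant A350 read.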

[1] = tested on: Candida albicans (SC5314); type: cell-based, C. albicans
Description: Additionally, in order to characterize possible antifungal activity, a library of alkylated compounds was tested against C. albicans, a representative fungal strain.
Antifungal Assays. MICs were determined using the broth microdilution assay given by CLSI M27-A2 protocols. Candida albicans (SC5314) was grown on Sabouraud dextrose agar for 24 hours at 30° C. Cells were suspended in 0.145 M saline, and the cell concentration was adjusted to 3×10^6 cells/mL. After adjusting the cell concentration, the suspension was diluted 1:1000 with RPMI 1640 (with L-glutamine and without sodium bicarbonate, Invitrogen) buffered with 0.145 M 3-(N-morpholino) propanesulfonic acid (MOPS). Two-fold serial dilutions of peptoids, peptides, and amphotericin B (Calbiochem) were prepared in RPMI 1640 and mixed with an equal volume of the cell suspension in 96-well plates. The final testing concentrations for the peptoids and peptides were 0.20 to 100 μM, and concentrations for amphotericin B were 0.031 to 16 μM. Growth controls and sterility controls were also included. Plates were incubated for 48 hours at 35° C., and growth of C. albicans was inspected visually to determine the MICs. The MIC for each compound was defined as the lowest concentration with no visible fungal growth. Experiments were performed in duplicate on two separate days.

B. subtilis = type: cell-based
Description: (§1) Antibacterial assays. MICs were determined according to CLSI M7-A6 protocols in a 96-well microtiter plate. In test wells, 50 μL bacterial inoculum (5×10^5 CFU/ml) in Mueller-Hinton broth (MHB) was added to 50 μL peptoid solution in MHB (prepared by 1:2 serial dilutions). Positive controls contained 50 μL inoculum and 50 μL MHB without peptoid. […] MIC values reported were reproducible between three independent experimental replicates, each consisting of two parallel trials. Broad-spectrum antimicrobial susceptibility testing was performed against BSL2 pathogens by Nova Biologicals, Inc. (Conroe, Tex.).
(§2) Screening antibacterial assays. MICs were determined in 96-well microtiter plates in accordance with CLSI M7-A6 protocols. Peptoid solutions with 50 μL total volume were prepared using 2:1 serial dilutions. 50 μL of bacteria inoculum (1×10^6 CFU/mL) prepared in cation-adjusted Mueller-Hinton broth (CAMHB) was added to test wells. Control wells contained 100 μL MHB (no growth) or 50 μL inoculums with 50 μL MHB with no peptoid. […] Reported values were reproducible over three experiments, each containing two parallel trials.

E. coli = type: cell-based
Description: as §1, §2

[2] = MTS assay, metabolic inhibition; type: cell-based, mouse
Description: (§3) The potencies of all compounds were determined against representative Gram-negative (E. coli ATCC 35218) and Gram-positive (B. subtilis ATCC 6633) biosafety level 1 (BSL1) organisms. In addition to hemolytic activity, the conventional measure of toxicity to mammalian cells, the effect of each ampetoid on NIH 3T3 mouse fibroblast cells was determined using the MTS tetrazolium salt-based calorimetric assay. While hemolysis measures the degree to which erythrocytes are lysed, the MTS assay indirectly quantifies the extent to which cellular metabolic activity is inhibited.
MTS assays. NIH/3T3 cells (ATCC Corporation) cultured at 37° C. and 5% CO2 in complete Dulbecco's modified eagle's media (CDMEM) supplemented with 1% sodium pyruvate, 1% penicillin-streptomycin, 1.5 g/L NaHCO3, and 10% fetal bovine serum. Cells were seeded at a density of 5,000 cells per well for NIH/3T3 cells in 96-well plates (100 μl total volume). A peptoid solution plate (100 μL total volume per well) was prepared by serial dilution of aqueous peptoid stock solution in Hank's balanced salt solution (HBSS) media. The day-old cell monolayers were washed with HBSS and media was replaced with 100 μL HBSS. The contents of the peptoid solution plate were transferred onto corresponding wells of the cell monolayer plate, and 40 μL MTS reagent (Promega, Inc.) was added to each well. After incubating for 3 hours at 37° C., absorbance at 490 nm was determined. […] The average of six replicates is reported.

B. subtilis (ATCC 6633) = type: cell-based; settings: ATCC 6633
Description: (§4) Whereas the preceding generation of molecules was designed to elucidate structure function relationships of specific molecular parameters (chirality, length, hydrophobicity, etc.), another generation compounds were designed explicitly to explore effects on selectivity. Antimicrobial activity of these compounds was tested against bacterial strains E. coli (ATTC 35218) and B. subtilis (ATTC 6633) in cation-adjusted MHB using the microdilution protocols previously described. The sequences, antimicrobial activities, hemolytic activities, and metabolic inhibitory concentrations against NIH 3T3 mouse fibroblast cells are summarized in Table 3 and the rationale of their design is described below.
as §3, §2

E. coli (ATCC 35218) = type: cell-based; settings: ATCC 35218
Description: as §4, §3, §2

For `CCCCCCCCCCNCC(=O)N(CCCCN)CC(=O)N(CC(=O)N(CC(=O)N(CCCCN)CC(N)=O)[C@@H](C)c1ccccc1)[C@@H](C)c1ccccc1` [C10-14 mer] (H-[NDecylGly][Nlys][Nspe][Nspe][Nlys]-NH2), the HD10 (human erythrocytes) was >200/>200 μM, the HD50 (human erythrocytes) was >200/>200 μM and the “C. albicans MIC” value ([1]; SC5314) was 100 µM. For the same compound, the “B. subtilis MIC” value (B. subtilis) was 6.3 µM and the “E. coli MIC” value (E. coli) was over 100 µM.

For `CCCCCCCCCCNCC(=O)N(CCCCN)CC(=O)N(CC(=O)N(CC(=O)N(CCCCN)CC(=O)N(CC(=O)N(CC(=O)N(CCCCN)CC(=O)N(CC(=O)N(CC(N)=O)[C@@H](C)c1ccccc1)[C@@H](C)c1ccccc1)[C@@H](C)c1ccccc1)[C@@H](C)c1ccccc1)[C@@H](C)c1ccccc1)[C@@H](C)c1ccccc1` [C10-19 mer] (H-[NDecylGly][Nlys][Nspe][Nspe][Nlys][Nspe][Nspe][Nlys][Nspe][Nspe]-NH2), the HD10 (human erythrocytes) was 12 µM, the HD50 (human erythrocytes) was 40 µM and the “C. albicans MIC” value ([1]; SC5314) was 3.1 µM. The “B. subtilis MIC” value (B. subtilis) was 3.1 µM and the “E. coli MIC” value (E. coli) was 6.3 µM.

With `CCCCCNCC(=O)N(CCCCN)CC(=O)N(CC(=O)N(CC(=O)N(CCCCN)CC(=O)N(CC(=O)N(CC(N)=O)[C@@H](C)c1ccccc1)[C@@H](C)c1ccccc1)[C@@H](C)c1ccccc1)[C@@H](C)c1ccccc1` [C5-16 mer] (H-[NPentylGly][Nlys][Nspe][Nspe][Nlys][Nspe][Nspe]-NH2) the HD10 (human erythrocytes) was >200/>200 μM, the HD50 (human erythrocytes) was >200/>200 μM and the “C. albicans MIC” value ([1]; SC5314) was 100 µM. For the same compound, the “B. subtilis MIC” value (B. subtilis) was 3.1 µM and the “E. coli MIC” value (E. coli) was over 200 µM.

For `CCCCCNCC(=O)N(CCCCN)CC(=O)N(CC(=O)N(CC(=O)N(CCCCN)CC(=O)N(CC(=O)N(CC(=O)N(CCCCN)CC(=O)N(CC(=O)N(CC(=O)N(CCCCN)CC(=O)N(CC(=O)N(CC(N)=O)[C@@H](C)c1ccccc1)[C@@H](C)c1ccccc1)[C@@H](C)c1ccccc1)[C@@H](C)c1ccccc1)[C@@H](C)c1ccccc1)[C@@H](C)c1ccccc1)[C@@H](C)c1ccccc1)[C@@H](C)c1ccccc1` [C5-1] (H-[NPentylGly][Nlys][Nspe][Nspe][Nlys][Nspe][Nspe][Nlys][Nspe][Nspe][Nlys][Nspe][Nspe]-NH2), the HD10 (human erythrocytes) was 10 µM, the HD50 (human erythrocytes) was 40 µM and the “C. albicans MIC” value ([1]; SC5314) was 6.3 µM. For the same compound, the “B. subtilis MIC” value (B. subtilis) was 1.6 µM and the “E. coli MIC” value (E. coli) was 6.3 µM.

In the case of `C[C@@H](c1ccccc1)N(CC(N)=O)C(=O)CN(C(=O)CN(CCCCN)C(=O)CN(C(=O)CN(C(=O)CN(CCCCN)C(=O)CN(C(=O)CN(C(=O)CNCCCCN)[C@@H](C)c1ccccc1)[C@@H](C)c1ccccc1)[C@@H](C)c1ccccc1)[C@@H](C)c1ccccc1)[C@@H](C)c1ccccc1` [19 mer, H-(Nlys-Nspe-Nspe)3-NH2] (H-[Nlys][Nspe][Nspe][Nlys][Nspe][Nspe][Nlys][Nspe][Nspe]-NH2), the HD10 (human erythrocytes) was 150 µM, the HD50 (human erythrocytes) was over 200 µM and the “HD10 (10% hemolytic dose)” value (human erythrocytes; red cells of human, 1 h) was >150/>150 μM. The “HD50 (50% hemolytic dose)” value (human erythrocytes; red cells of human, 1 h) was >150/>150 μM, the “C. albicans MIC” value ([1]; SC5314, 48 h) was 15.6 µM and the “B. subtilis MIC” value (B. subtilis) was 1.6 µM. For the same compound, the “E. coli MIC” value (E. coli) was 25 µM.

In the case of `CCCCCCCCCCNCC(=O)N(CCCCN)CC(=O)N(CC(=O)N(CC(=O)N(CCCCN)CC(=O)N(CC(=O)N(CC(N)=O)[C@@H](C)c1ccccc1)[C@@H](C)c1ccccc1)[C@@H](C)c1ccccc1)[C@@H](C)c1ccccc1` [C10-16 mer] (H-[NDecylGly][Nlys][Nspe][Nspe][Nlys][Nspe][Nspe]-NH2), the HD10 (human erythrocytes) was 30 µM, the HD50 (human erythrocytes) was 80 µM and the “C. albicans MIC” value ([1]; SC5314) was 6.25 µM. The “B. subtilis MIC” value (B. subtilis) was 1.6 µM and the “E. coli MIC” value (E. coli) was 6.3 µM.

`C[C@H](c1ccccc1)N(CC(=O)N(CCCCN)CC(=O)N(CC(=O)N(CC(=O)N(CCCCN)CC(=O)N(CC(=O)N(CC(=O)N(CCCCN)CC(=O)N(CC(=O)N(CC(N)=O)[C@@H](C)c1ccccc1)[C@@H](C)c1ccccc1)[C@@H](C)c1ccccc1)[C@@H](C)c1ccccc1)[C@H](C)c1ccccc1)[C@H](C)c1ccccc1)C(=O)CN(C(=O)CNCCCCN)[C@H](C)c1ccccc1` [1-Nrpe2,3,5,6, H-(Nlys-Nrpe-Nrpe)2-(Nlys-Nspe-Nspe)2-NH2] (H-[Nlys][Nrpe][Nrpe][Nlys][Nrpe][Nrpe][Nlys][Nspe][Nspe][Nlys][Nspe][Nspe]-NH2) showed an HD10 (human erythrocytes; Table 6) of 25 µM, an HD50 (human erythrocytes; Table 6) of 96 µM and a pIC50 ([2]; Table 6, NIH 3T3 mouse fibroblast cells) of 5.32. For the same compound, the “B. subtilis MIC” value (B. subtilis (ATCC 6633); Table 6) was 0.78 µM and the “E. coli MIC” value (E. coli (ATCC 35218); Table 6) was 6.3 µM.

In the case of `C[C@@H](c1ccccc1)N(CC(N)=O)C(=O)CN(CCCCN)C(=O)CN(CCCCN)C(=O)CN(C(=O)CN(C(=O)CN(CCCCN)C(=O)CN(C(=O)CN(CCCCN)C(=O)CN(CCCCN)C(=O)CN(C(=O)CN(C(=O)CNCCCCN)[C@@H](C)c1ccccc1)[C@@H](C)c1ccccc1)[C@@H](C)c1ccccc1)[C@@H](C)c1ccccc1)[C@@H](C)c1ccccc1` [1-Nlys5,11, H-(Nlys-Nspe-Nspe-Nlys-Nlys-Nspe)2-NH2] (H-[Nlys][Nspe][Nspe][Nlys][Nlys][Nspe][Nlys][Nspe][Nspe][Nlys][Nlys][Nspe]-NH2), the HD10 (human erythrocytes) was >100/>100 μM, the HD50 (human erythrocytes) was >100/>100 μM and the pIC50 [2] was 4.07. The “B. subtilis MIC” value (B. subtilis (ATCC 6633)) was 1.6 µM and the “E. coli MIC” value (E. coli (ATCC 35218)) was 50 µM.

In the case of `C[C@H](NCC(=O)N(CC(=O)N(CCCCN)CC(=O)N(CC(=O)N(CC(=O)N(CCCCN)CC(=O)N(CC(=O)N(CC(=O)N(CCCCN)CC(=O)N(CC(=O)N(CC(=O)N(CCCCN)CC(N)=O)[C@@H](C)c1ccccc1)[C@@H](C)c1ccccc1)[C@@H](C)c1ccccc1)[C@@H](C)c1ccccc1)[C@@H](C)c1ccccc1)[C@@H](C)c1ccccc1)[C@@H](C)c1ccccc1)c1ccccc1` [1C, H-(Nspe-Nspe-Nlys)4-NH2] (H-[Nspe][Nspe][Nlys][Nspe][Nspe][Nlys][Nspe][Nspe][Nlys][Nspe][Nspe][Nlys]-NH2), the HD10 (human erythrocytes) was 25 µM, the HD50 (human erythrocytes) was over 100 µM and the pIC50 [2] was 5.25. The “B. subtilis MIC” value (B. subtilis (ATCC 6633)) was 1.6 µM and the “E. coli MIC” value (E. coli (ATCC 35218)) was 6.3 µM.
